#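 The compound was tested at five concentrations on cells cultured in 96-well plates, with a 48-hour exposure period. The concentration for 50% growth inhibition is given as GI50. The concentration for full growth arrest is given as TGI.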
# Tests used:
# Assay in all cases: inhibition of tumour cell growth, NCI panel, 48 h
# K-562 leukemia = tested on: K-562 leukemia
# NCI-H460 lung = tested on: NCI-H460 lung
# SK-OV-3 ovarian = tested on: SK-OV-3 ovarian
# NCI-H522 lung = tested on: NCI-H522 lung
# KM12 colon = tested on: KM12 colon
# HCC-2998 colon = tested on: HCC-2998 colon
# OVCAR-4 ovarian = tested on: OVCAR-4 ovarian
# U251 CNS = tested on: U251 CNS
# NCI-H226 lung = tested on: NCI-H226 lung
# SW-620 colon = tested on: SW-620 colon
# CAKI-1 renal = tested on: CAKI-1 renal
# HS 578T breast = tested on: HS 578T breast
# OVCAR-3 ovarian = tested on: OVCAR-3 ovarian
# A549 NSCLC = tested on: A549 NSCLC
# TK-10 renal = tested on: TK-10 renal
# SR leukemia = tested on: SR leukemia
# SN12C renal = tested on: SN12C renal
# COLO 205 colon = tested on: COLO 205 colon
# OVCAR-5 ovarian = tested on: OVCAR-5 ovarian
# SF-539 CNS = tested on: SF-539 CNS
# RXF 393 renal = tested on: RXF 393 renal
# HOP-92 NSCLC = tested on: HOP-92 NSCLC
# UO-31 renal = tested on: UO-31 renal
# HCT-116 colon = tested on: HCT-116 colon
# SF-268 CNS = tested on: SF-268 CNS
# CCRF-CEM leukemia = tested on: CCRF-CEM leukemia
# HT29 colon = tested on: HT29 colon
# LOX IMVI melanoma = tested on: LOX IMVI melanoma
# HCT-15 colon = tested on: HCT-15 colon
# IGROV1 ovarian = tested on: IGROV1 ovarian
# DU-145 prostate = tested on: DU-145 prostate
# HOP-62 NSCLC = tested on: HOP-62 NSCLC
# SK-MEL-2 melanoma = tested on: SK-MEL-2 melanoma
# HL-60(TB) leukemia = tested on: HL-60(TB) leukemia
# BT-549 breast = tested on: BT-549 breast
# SNB-19 CNS = tested on: SNB-19 CNS
# NCI/ADR-RES ovarian = tested on: NCI/ADR-RES ovarian
# MOLT-4 leukemia = tested on: MOLT-4 leukemia
# MALME-3M melanoma = tested on: MALME-3M melanoma
# OVCAR-8 ovarian = tested on: OVCAR-8 ovarian
# RPMI-8226 leukemia = tested on: RPMI-8226 leukemia
# SF-295 CNS = tested on: SF-295 CNS
# MDA-MB-435 = tested on: MDA-MB-435
# NCI-H23 lung = tested on: NCI-H23 lung
# SNB-75 CNS = tested on: SNB-75 CNS
# PC-3 prostate = tested on: PC-3 prostate
# SK-MEL-28 melanoma = tested on: SK-MEL-28 melanoma
# ACHN renal = tested on: ACHN renal
# M14 melanoma = tested on: M14 melanoma
# UACC-257 melanoma = tested on: UACC-257 melanoma
# UACC-62 melanoma = tested on: UACC-62 melanoma
# A498 renal = tested on: A498 renal
# MDA-MB-231 breast = tested on: MDA-MB-231 breast
# T-47D breast = tested on: T-47D breast
# MCF7 breast = tested on: MCF7 breast
# 786-0 renal = tested on: 786-0 renal
# SK-MEL-5 melanoma = tested on: SK-MEL-5 melanoma
structure (smiles),measurement,setting,value
C[CH2][Pb]([CH2]C)([CH2]C)[O]C(=O)COC,GI50,K-562 leukemia,499 nM
same,TGI,K-562 leukemia,5770 nM
same,GI50,NCI-H460 lung,951 nM
same,TGI,NCI-H460 lung,10400 nM
same,GI50,SK-OV-3 ovarian,1550 nM
same,TGI,SK-OV-3 ovarian,4930 nM
same,GI50,NCI-H522 lung,892 nM
same,TGI,NCI-H522 lung,2480 nM
same,GI50,KM12 colon,817 nM
same,TGI,KM12 colon,6100 nM
same,GI50,HCC-2998 colon,907 nM
same,TGI,HCC-2998 colon,2390 nM
same,GI50,OVCAR-4 ovarian,541 nM
same,TGI,OVCAR-4 ovarian,2910 nM
same,GI50,U251 CNS,1290 nM
same,TGI,U251 CNS,2940 nM
same,GI50,NCI-H226 lung,1620 nM
same,TGI,NCI-H226 lung,6170 nM
same,GI50,SW-620 colon,333 nM
same,TGI,SW-620 colon,1330 nM
same,GI50,CAKI-1 renal,1060 nM
same,TGI,CAKI-1 renal,8040 nM
same,GI50,HS 578T breast,517 nM
same,TGI,HS 578T breast,4570 nM
same,GI50,OVCAR-3 ovarian,441 nM
same,TGI,OVCAR-3 ovarian,1860 nM
same,GI50,A549 NSCLC,1360 nM
same,TGI,A549 NSCLC,6820 nM
same,GI50,TK-10 renal,832 nM
same,TGI,TK-10 renal,3770 nM
same,GI50,SR leukemia,328 nM
same,TGI,SR leukemia,5070 nM
same,GI50,SN12C renal,2050 nM
same,TGI,SN12C renal,9190 nM
same,GI50,COLO 205 colon,1350 nM
same,TGI,COLO 205 colon,2960 nM
same,GI50,OVCAR-5 ovarian,1460 nM
same,TGI,OVCAR-5 ovarian,3770 nM
same,GI50,SF-539 CNS,1230 nM
same,TGI,SF-539 CNS,3280 nM
same,GI50,RXF 393 renal,232 nM
same,TGI,RXF 393 renal,783 nM
same,GI50,HOP-92 NSCLC,292 nM
same,TGI,HOP-92 NSCLC,3280 nM
same,GI50,UO-31 renal,567 nM
same,TGI,UO-31 renal,2950 nM
same,GI50,HCT-116 colon,578 nM
same,TGI,HCT-116 colon,1970 nM
same,GI50,SF-268 CNS,1750 nM
same,TGI,SF-268 CNS,7020 nM
same,GI50,CCRF-CEM leukemia,534 nM
same,TGI,CCRF-CEM leukemia,6840 nM
same,GI50,HT29 colon,1430 nM
same,TGI,HT29 colon,3380 nM
same,GI50,LOX IMVI melanoma,815 nM
same,TGI,LOX IMVI melanoma,2280 nM
same,GI50,HCT-15 colon,737 nM
same,TGI,HCT-15 colon,4330 nM
same,GI50,IGROV1 ovarian,1150 nM
same,TGI,IGROV1 ovarian,6330 nM
same,GI50,DU-145 prostate,1490 nM
same,TGI,DU-145 prostate,5680 nM
same,GI50,HOP-62 NSCLC,1670 nM
same,TGI,HOP-62 NSCLC,4060 nM
same,GI50,SK-MEL-2 melanoma,332 nM
same,TGI,SK-MEL-2 melanoma,879 nM
same,GI50,HL-60(TB) leukemia,634 nM
same,TGI,HL-60(TB) leukemia,2450 nM
same,GI50,BT-549 breast,837 nM
same,TGI,BT-549 breast,3610 nM
same,GI50,SNB-19 CNS,1970 nM
same,TGI,SNB-19 CNS,9060 nM
same,GI50,NCI/ADR-RES ovarian,785 nM
same,TGI,NCI/ADR-RES ovarian,12000 nM
same,GI50,MOLT-4 leukemia,1750 nM
same,TGI,MOLT-4 leukemia,5970 nM
same,GI50,MALME-3M melanoma,337 nM
same,TGI,MALME-3M melanoma,3760 nM
same,GI50,OVCAR-8 ovarian,1910 nM
same,TGI,OVCAR-8 ovarian,9030 nM
same,GI50,RPMI-8226 leukemia,421 nM
same,TGI,RPMI-8226 leukemia,3000 nM
same,GI50,SF-295 CNS,1330 nM
same,TGI,SF-295 CNS,3060 nM
same,GI50,MDA-MB-435,182 nM
same,TGI,MDA-MB-435,409 nM
same,GI50,NCI-H23 lung,1010 nM
same,TGI,NCI-H23 lung,5070 nM
same,GI50,SNB-75 CNS,304 nM
same,TGI,SNB-75 CNS,2850 nM
same,GI50,PC-3 prostate,795 nM
same,TGI,PC-3 prostate,2510 nM
same,GI50,SK-MEL-28 melanoma,552 nM
same,TGI,SK-MEL-28 melanoma,2900 nM
same,GI50,ACHN renal,836 nM
same,TGI,ACHN renal,10200 nM
same,GI50,M14 melanoma,400 nM
same,TGI,M14 melanoma,1900 nM
same,GI50,UACC-257 melanoma,571 nM
same,TGI,UACC-257 melanoma,3260 nM
same,GI50,UACC-62 melanoma,407 nM
same,TGI,UACC-62 melanoma,3470 nM
same,GI50,A498 renal,277 nM
same,TGI,A498 renal,2290 nM
same,GI50,MDA-MB-231 breast,1130 nM
same,TGI,MDA-MB-231 breast,3370 nM
same,GI50,T-47D breast,317 nM
same,TGI,T-47D breast,2530 nM
same,GI50,MCF7 breast,469 nM
same,TGI,MCF7 breast,7530 nM
same,GI50,786-0 renal,1220 nM
same,TGI,786-0 renal,3110 nM
same,GI50,SK-MEL-5 melanoma,427 nM
same,TGI,SK-MEL-5 melanoma,1620 nM

# Reference: PubChem BioAssay (NCI)
